Measured values from ChEMBL document CHEMBL4813985, “Lead optimization generates selenium-containing miconazole CYP51 inhibitors with improved pharmacological profile for the treatment of fungal infections” (Eur J Med Chem, 2021).
pIC50: −log10 of the molar value. ≈ marks a conversion by molar mass, not a printed value.

Experiments:
[1] = system: Candida albicans; experiment: Antifungal activity against Candida albicans ATCC SC5314 measured after 24 hrs by broth microdilution assay; format: functional
[2] = system: Candida albicans; experiment: Antifungal activity against fluconazole-resistant Candida albicans 17# assessed as inhibition of microbial growth after 24 hrs by broth microdilution method; format: functional
[3] = system: Candida albicans; experiment: Potency index, ratio of fluconazole MIC to test compound MIC for Candida albicans CPCC400616 measured after 24 hrs by broth microdilution assay; format: functional
[4] = system: Candida albicans; experiment: Antifungal activity against Candida albicans CPCC400616 measured after 24 hrs by broth microdilution assay; format: functional
[5] = system: Candida albicans; experiment: Antifungal activity against fluconazole-resistant Candida albicans 632 assessed as inhibition of microbial growth after 24 hrs by broth microdilution method; format: functional
[6] = system: Pichia kudriavzevii; experiment: Antifungal activity against Candida krusei AS2.1045 measured after 24 hrs by broth microdilution assay; format: functional
[7] = system: Candida albicans; experiment: Antifungal activity against fluconazole-resistant Candida albicans 901 assessed as inhibition of microbial growth after 24 hrs by broth microdilution method; format: functional
[8] = system: Candida albicans; experiment: Antifungal activity against fluconazole-resistant Candida albicans CaR assessed as inhibition of microbial growth after 24 hrs by broth microdilution method; format: functional
[9] = system: Candida albicans; experiment: Antifungal activity against fluconazole-resistant Candida albicans 904 assessed as inhibition of microbial growth after 24 hrs by broth microdilution method; format: functional
[10] = system: Cryptococcus neoformans; experiment: Antifungal activity against Cryptococcus neoformans CMGCC2.3161 measured after 72 hrs by broth microdilution assay; format: functional
[11] = system: [Candida] zeylanoides; experiment: Antifungal activity against Candida zeylanoides CMGCC2.3739 measured after 24 hrs by broth microdilution assay; format: functional; settings: Dujonia zeylanoides
[12] = system: Nakaseomyces glabratus; experiment: Antifungal activity against Candida glabrata measured after 24 hrs by broth microdilution assay; format: functional
[13] = system: Candida parapsilosis; experiment: Antifungal activity against Candida parapsilosis ATCC 22019 measured after 24 hrs by broth microdilution assay; format: functional; settings: Lodderomyces parapsilosis
[14] = system: Aspergillus fumigatus; experiment: Antifungal activity against Aspergillus fumigatus CMGCC3.7795 measured after 72 hrs by broth microdilution assay; format: functional
[15] = system: PC-3; experiment: Cytotoxicity against human PC3 cells assessed as reduction in cell viability incubated for 96 hrs by MTT assay; format: cell-based; settings: PC-3, 96 h
[16] = system: MCF-10A; experiment: Cytotoxicity against human MCF-10A cells assessed as reduction in cell viability incubated for 96 hrs by MTT assay; format: cell-based
[17] = system: HL-60; experiment: Cytotoxicity against human HL-60 cells assessed as reduction in cell viability incubated for 96 hrs by MTT assay; format: cell-based; settings: HL-60, 96 h

Row | SMILES | MIC [1] [µg/mL] | MIC [2] [µg/mL] | Ratio [3] | MIC [4] [µg/mL] | MIC [5] [µg/mL] | MIC [6] [µg/mL] | MIC [7] [µg/mL] | MIC [8] [µg/mL] | MIC [9] [µg/mL] | MIC [10] [µg/mL] | MIC [11] [µg/mL] | MIC [12] [µg/mL] | MIC [13] [µg/mL] | MIC [14] [µg/mL] | pIC50 [15] | pIC50 [16] | pIC50 [17]
1 | Cc1cccc(C)c1[Se]C(Cn1ccnc1)c1ccc(Cl)cc1Cl (stereo not given) | 0.06 (≈ 0.141 µM) | 4 | 8 | 0.13 (≈ 0.306 µM) | 8 | 2 (≈ 4.71 µM) | 16 | 4 | 8 | 0.5 (≈ 1.18 µM) | 4 (≈ 9.43 µM) | 0.13 (≈ 0.306 µM) | 0.5 (≈ 1.18 µM) | 8 (≈ 18.9 µM) | – | – | –
2 | Cc1ccccc1[Se]C(Cn1ccnc1)c1ccc(Cl)cc1Cl (stereo not given) | 0.03 (≈ 0.0731 µM) | 2 | 8 | 0.13 (≈ 0.317 µM) | 0.5 | 0.13 (≈ 0.317 µM) | 0.5 | 4 | 0.5 | 0.5 (≈ 1.22 µM) | 0.5 (≈ 1.22 µM) | 0.25 (≈ 0.609 µM) | 0.5 (≈ 1.22 µM) | 16 (≈ 39 µM) | – | – | –
3 | COc1ccc([Se]C(Cn2ccnc2)c2ccc(Cl)cc2Cl)cc1 (stereo not given) | 0.03 (≈ 0.0704 µM) | 2 | 8 | 0.13 (≈ 0.305 µM) | 2 | 0.02 (≈ 0.0469 µM) | 8 | 8 | 8 | 0.25 (≈ 0.587 µM) | 0.5 (≈ 1.17 µM) | 0.25 (≈ 0.587 µM) | 0.25 (≈ 0.587 µM) | 16 (≈ 37.5 µM) | – | – | –
4 | CCc1ccc([Se]C(Cn2ccnc2)c2ccc(Cl)cc2Cl)cc1 (stereo not given) | 0.03 (≈ 0.0707 µM) | 8 | 8 | 0.5 (≈ 1.18 µM) | 4 | 0.06 (≈ 0.141 µM) | 4 | 8 | 15 | 0.5 (≈ 1.18 µM) | 0.5 (≈ 1.18 µM) | 0.13 (≈ 0.306 µM) | 1 (≈ 2.36 µM) | 4 (≈ 9.43 µM) | – | – | –
5 | COc1cccc2c1C(=O)c1c(O)c3c(c(O)c1C2=O)C[C@@](O)(C(=O)CO)C[C@@H]3O[C@H]1C[C@H](N)[C@H](O)[C@H](C)O1 [DOXORUBICIN] | – | – | – | – | – | – | – | – | – | – | – | – | – | – | 6.19 | 5.58 | > 6.90
6 | Fc1ccc(C(Cn2ccnc2)[Se]c2ccccc2)c(F)c1 (stereo not given) | 0.02 (≈ 0.0551 µM) | 4 | 8 | 0.5 (≈ 1.38 µM) | 2 | 0.25 (≈ 0.688 µM) | 2 | 1 | 1 | 0.5 (≈ 1.38 µM) | 0.25 (≈ 0.688 µM) | 1 (≈ 2.75 µM) | 0.06 (≈ 0.165 µM) | 2 (≈ 5.51 µM) | – | – | –
7 | COc1ccc([Se]C(Cn2ccnc2)c2ccc(F)cc2F)cc1 (stereo not given) | 0.03 (≈ 0.0763 µM) | 16 | 8 | 1 (≈ 2.54 µM) | 16 | 0.5 (≈ 1.27 µM) | 2 | 2 | 8 | 0.5 (≈ 1.27 µM) | 0.25 (≈ 0.636 µM) | 0.5 (≈ 1.27 µM) | 0.25 (≈ 0.636 µM) | 8 (≈ 20.3 µM) | – | – | –
8 | CCc1ccc([Se]C(Cn2ccnc2)c2ccc(F)cc2F)cc1 (stereo not given) | 0.13 (≈ 0.332 µM) | 4 | 8 | 0.13 (≈ 0.332 µM) | 1 | 0.13 (≈ 0.332 µM) | 2 | 1 | 8 | 0.03 (≈ 0.0767 µM) | 0.5 (≈ 1.28 µM) | 0.5 (≈ 1.28 µM) | 0.13 (≈ 0.332 µM) | 8 (≈ 20.4 µM) | – | – | –
9 | Cc1cc(C)cc([Se]C(Cn2ccnc2)c2ccc(F)cc2F)c1 (stereo not given) | 0.03 (≈ 0.0767 µM) | 4 | 8 | 0.13 (≈ 0.332 µM) | 8 | 0.13 (≈ 0.332 µM) | 4 | 2 | 8 | 0.5 (≈ 1.28 µM) | 0.5 (≈ 1.28 µM) | 0.5 (≈ 1.28 µM) | 0.13 (≈ 0.332 µM) | 8 (≈ 20.4 µM) | – | – | –
